Here are results for 3 molecules from paper PMC5288202, “Simultaneous inhibition of Vps34 kinase would enhance PI3Kδ inhibitor cytotoxicity in the B-cell malignancies” (Oncotarget, 2016).

Where two headings read alike, the source gives them in different places.

Holding throughout (format): cell-based
One test concerns SKM-1. Nature of the test: Anti-proliferative effect. Particulars: Homo sapiens, SKM-1; AML(FLT3wt); read-out: GI50 SKM-1.
For a further test, the system named is NOMO-1. Nature of the test: Anti-proliferative effect. Particulars: Homo sapiens, NOMO-1; AML (FLT3wt); read-out: GI50 NOMO-1.
In another test the test system is HT. Nature of the test: Anti-proliferative effect. The note with it: Homo sapiens, B-cell lymphoma, read-out: GI50 HT.
The next test deals with pERK in MEC-2 cells. In words: pERK immunoblotting. The text has this:
The following antibodies were purchased from Cell Signaling Technology: Akt(#4691), Phospho-Akt(Thr308)(#4056), Phospho-Akt(Ser473)(#4060), GAPDH, GSK-3β(#9315), Phospho-GSK-3β(#9323), FoxO1(#2880), Phospho-FoxO1 (Thr24)/FoxO3a(Thr32)/FoxO4(Thr28)(#2599), PRAS40(#2691), Phospho-PRAS40 (Thr246)(#2997), 4E-BP1(#9644), p70 S6K(#2708), Phospho-p70 S6K (Thr389)(#9234). SQSTM1/p62 (D5E2)(#8025), LC3B(#12513). PARP(#9532), Caspase-3(#9665), Phospho-p44/42 MAPK (Erk1/2) (Thr202/Tyr204)(#4377), p44/42 MAPK (Erk1/2) (#4695), Phospho-NF-ΚB P65 (Ser 536)(#3033), NF-ΚB P65(#4764). Lysophosphatidic Acid (#sc-201053, Santa Cruz), Recombinant Human PDGF-BB (#220-BB, R&D), Recombinant Human C5a (Peprotech, #300-70), goat anti-IgM (#5C07615, Meridian). LC3B antibody (#3868, CST). Tubulin antibody (#8035, Santa Cruz). EEA1 antibody (#610456, BD Bioscience) and LAMP1 antibody (#24170, Abcam). Secondary antibodies, Alexa488-anti-mouse, Alexa594-anti-rabbit and Prolong gold mounting medium with DAPI were purchased from Invitrogen.
On the technique in general: In western blotting, separated proteins are transferred to a membrane and probed.

Test [1] deals with MV4-11. Nature of the test: Anti-proliferative effect. Particulars: Homo sapiens, MV4-11; AML (FLT3-ITD).
The next test deals with U937. In words: Anti-proliferative effect. The note with it: Homo sapiens, U-937; AML(FLT3wt); read-out: GI50 U937.
Test [2] relates to OCI-AML-2. Nature of the test: Anti-proliferative effect. Particulars: Homo sapiens, OCI-AML2; AML(FLT3wt); read-out: GI50 OCI-AML-2.
The next test concerns MOLM-14. In words: Anti-proliferative effect. The note with it: Homo sapiens, MOLM-14; AML (FLT3-ITD).
A further test relates to Hs 505T. Nature of the test: Anti-proliferative effect. Particulars: Homo sapiens; CLL; read-out: GI50 Hs 505T.
The subject of another test is HEL. In words: Anti-proliferative effect. Particulars: Homo sapiens, AML(FLT3wt), read-out: GI50 HEL.
The subject of a further test is CMK. In words: Anti-proliferative effect. The note with it: Homo sapiens, read-out: GI50 CMK.
The test system of another test is HL-60. In words: Anti-proliferative effect. Particulars: Homo sapiens, HL-60; AML (FLT3 wt); read-out: GI50 HL-60.
A further test deals with MOLM-13. In words: Anti-proliferative effect. Particulars: Homo sapiens, AML(FLT3-ITD).
In test [3] the test system is Namalwa. In words: Anti-proliferative effect. The note with it: Burrkit lymphoma; read-out: GI50 Namalwa.
Test [4] relates to MEC-2. In words: Anti-proliferative effect.
A further test relates to MEC-1. Nature of the test: Anti-proliferative effect. Particulars: Homo sapiens, MEC1; CLL.
Another test has as its system NB4. In words: Anti-proliferative effect. The note with it: Homo sapiens; AML-3 (FLT3wt); read-out: GI50 NB4.
In a further test the test system is OCI-AML-3. In words: Anti-proliferative effect. Particulars: Homo sapiens, AML(FLT3wt).
The subject of the next test is Ramos. In words: Anti-proliferative effect. The note with it: Homo sapiens, Burrkit lymphoma, read-out: GI50 Ramos.
The test system of test [5] is LAMP1 localization in HeLa cells. In words: Immunofluorescence of LAMP1 localization. The protocol: (§1) HeLa cells were treated with different concentrations of inhibitors for 16 hours. For all immunofluorescence experiments, cells were fixed in -20 °C methanol for 5 minutes or 3.7% (v/v) formaldehyde in phosphate-buffered saline (PBS) for 20 minutes. For LC3B staining, cells were fixed in -20 °C methanol. For EEA1 and LAMP1 staining, cells were fixed in PBS+ formaldehyde. Cells were then permeabilized with TBSTx (0.1% Triton X-100), blocked in AbDil (TBSTx + 2% BSA + 0.1% NaN3), and probed with primary and secondary antibodies diluted in AbDil. Cells were rinsed thoroughly with TBSTx and mounted by anti-fade prolong Gold with DAPI. Images were taken using a Leica DMI4000B fluorescent microscope. All experiments were repeated at least three times). […] Cells were lysed in lysis buffer. P62, LC3B, and GAPDH antibodies were used for immunoblotting.

The subject of test [6] is OCI-AML-2. In words: Drug combination study (CellTiter-Glo, 72 hours). The note with it: Homo sapiens, OCI-AML2, VPS34-IN-1 1.1 μM, normalized to DMSO, read-out: Relative activity(%) (OCI-AML-2). Here is the method: (§2) A combination of the PI3K kinase inhibitor CAL101 with the VPS34 inhibitor VPS34-IN-1, was used to treat the cell lines. Cell proliferation were determined after treatment with the compounds for 72 hours. Cell viability was measured using the CellTiter–Glo assay (Promega, USA), data were normalized to control groups (DMSO) and represented by the mean of three independent measurements with a standard error <20%.
A general note: In ATP-based viability assays light output follows the ATP content of the culture.

For test [7], the system named is Namalwa. In words: Drug combination study (CellTiter-Glo, 72 hours). Particulars: VPS34-IN-1 3.3 μM, normalized to DMSO, read-out: Relative activity(%) (Namalwa). Here is the method: as §2
In test [8] the test system is MEC-2. Nature of the test: Drug combination study (CellTiter-Glo, 72 hours). The note with it: MEC2, 72 h, read-out: Relative activity(%) (MEC-2). The protocol:
as §2

Test [9] relates to MV4-11. In words: Drug combination study (CellTiter-Glo, 72 hours). Particulars: Homo sapiens, VPS34-IN-1 3.3 μM, normalized to DMSO, read-out: Relative activity(%) (MV4-11). Here is the method:
as §2

The subject of test [10] is LC3B puncta in HeLa cells. Nature of the test: Immunofluorescence of LC3B puncta. The note with it: 16 hours. Here is the method:
as §1

With `CC[C@H](Nc1ncnc2[nH]cnc12)c1nc2cccc(F)c2c(=O)n1-c1ccccc1` [CAL-101], the 50% growth inhibitory concentration (GI50) with SKM-1, with NOMO-1, in the test with HT, in the test with MV4-11 [1], in the test on U937 and with OCI-AML-2 [2] was above 10000 nM throughout. Moreover, the concentration for 50% growth inhibition (GI50) (commonly the concentration at which growth is held to half of that of the control) in the test on MOLM-14 is 7800 nM; with Hs 505T, above 10000 nM; in the test on HEL, above 10000 nM; with CMK (AML(FLT3wt)), above 10000 nM; in the test on HL-60 it was above 10000 nM; in the test with MOLM-13, above 10000 nM. Besides, the concentration for 50% growth inhibition (GI50) is above 10000 nM in the test on Namalwa [3]; above 10000 nM in the test with MEC-2 [4] (MEC2, CLL, read-out: GI50 MEC-2); above 10000 nM in the test on MEC-1; above 10000 nM with NB4; 2400 nM with OCI-AML-3; above 10000 nM in the test with Ramos. Besides, the “effect on pERK” value in the test with pERK in MEC-2 cells is on record as “significantly inhibited”.

As to `CS(=O)(=O)N1CCN(Cc2cc3nc(-c4cccc5[nH]ncc45)nc(N4CCOCC4)c3s2)CC1` [GDC-0941], the concentration for 50% growth inhibition (GI50) was 300 nM in the test on SKM-1; 1000 nM in the test on NOMO-1; 500 nM with HT; 1400 nM with MV4-11 [1]; 1600 nM in the test with U937; 2000 nM in the test on OCI-AML-2 [2]. Moreover, the 50% growth inhibitory concentration (GI50) is 300 nM in the test with MOLM-14; above 10000 nM in the test on HEL; 300 nM in the test on CMK (AML(FLT3wt)); 160 nM in the test on HL-60; 150 nM with MOLM-13; 390 nM in the test on Namalwa [3]. For the same molecule, the GI50 in the test with NB4 came out at 1000 nM; in the test with OCI-AML-3 it was 730 nM; in the test on Ramos, 2100 nM. The “effect on pERK” value in the test on pERK in MEC-2 cells is given as “significantly inhibited”.

As to `CC(C)(O)CNc1ncc(-c2ccnc(Nc3ccnc(Cl)c3)n2)c(CC2CC2)n1` [VPS34-IN-1], the “Effect on lysosome marker LAMP1 localization” value in test [5] is on record as “affected”. In addition, the GI50 was determined as 6400 nM in the test with SKM-1; 1800 nM in the test with NOMO-1; 1400 nM in the test on HT; 2400 nM with MV4-11 [1]; 2100 nM in the test on U937; 6600 nM in the test with OCI-AML-2 [2]. The GI50 stood at 7800 nM in the test on MOLM-14; 3000 nM in the test with Hs 505T; 1700 nM in the test on HEL; 5900 nM with CMK; 510 nM in the test with HL-60; 700 nM in the test on MOLM-13. Also, the concentration for 50% growth inhibition (GI50) in the test on Namalwa [3] stood at 8100 nM; in the test on MEC-2 [4] (MEC2, read-out: GI50 MEC-2) it was 3100 nM; in the test with MEC-1, 3700 nM; with NB4, 6400 nM; in the test on OCI-AML-3, 3600 nM; with Ramos it was 3300 nM. In addition, the activity at 1.1 µM in the test with OCI-AML-2 [6] came to 82.8%. Moreover, the activity at 3.3 µM with Namalwa [7] came to 77.8%; in the test with MV4-11 [9] it was 43.6%. Further, the activity at 10 µM in the test with MEC-2 [8] came out at 30.4%. Further, the “Effect on LC3B puncta” value in test [10] is “increased LC3B puncta”.
